Bridge positions count the residues as written; N and C are the ends. Square brackets hold non-standard residues; d marks the D form. Ends that are not written are not given here. S5 = C=CCCC[C@](C)(N)C(=O)O
Tests used:
[1] = tested on: A549; assay: Cytotoxicity and caspase 3/7 activation; format: cell-based; conditions: non-melanoma line; data not shown
Description: (§1) Cell Viability, LDH Release, and Caspase-3/7 Activation Assays: Cancer cells were cultured using their standard culture media containing 10% FBS and penicillin/streptomycin (A375P: DMEM; SK-MEL-2, SK-MEL-28 and MCF-7: EMEM; A549, H929: RPMI). […] Cell viability and caspase 3/7 activation was measured using CellTiter-Glo and Caspase-Glo 3/7 chemiluminescence reagents (Promega), respectively, and luminescence detected by a microplate reader (Spectramax M5, Molecular Devices). LDH release was quantified after 30 min peptide incubation by plate centrifugation at 1500 rpm for 5 min at 4° C., transfer of 100 μL cell culture media to a clear plate (Corning), incubation with 100 μL LDH reagent (Roche) for 30 min while shaking, and measurement of absorbance at 490 nm on a Spectramax M5 microplate reader.

[2] = tested on: H929; assay: Cytotoxicity and caspase 3/7 activation; format: cell-based; conditions: non-melanoma line; data not shown
Description: as §1

[3] = tested on: SK-MEL-2; assay: Cytotoxicity and caspase 3/7 activation; format: cell-based; conditions: BFL-1 expressing melanoma line; data not shown
Description: as §1

[4] = tested on: SK-MEL-28; assay: Cytotoxicity and caspase 3/7 activation; format: cell-based; conditions: BFL-1 expressing melanoma line; data not shown
Description: as §1

[5] = tested on: MCF7; assay: Cytotoxicity and caspase 3/7 activation; format: cell-based; conditions: non-melanoma line; data not shown
Description: as §1

[6] = tested on: A375P cells; assay: Cell viability (CellTiter-Glo); format: cell-based, human; conditions: 40 μM, over time
Description: We confirmed by LDH release assay that BIM SAHBs had no membranolytic effect on the cells (FIG. 16B). The observed cytotoxicity was instead consistent with mitochondrial apoptosis induction, as reflected by time-responsive caspase 3/7 activation (FIG. 16C) and mitochondrial cytochrome c release (FIG. 16D).
as §1

[7] = molecular target: T1, Bfl-1 (Homo sapiens, UniProt Q16548); assay: Bfl-1: Warhead SAHB conjugation assay; format: binding; conditions: warhead SAHBs, reducing conditions
T1 sequence (Q16548 1-175): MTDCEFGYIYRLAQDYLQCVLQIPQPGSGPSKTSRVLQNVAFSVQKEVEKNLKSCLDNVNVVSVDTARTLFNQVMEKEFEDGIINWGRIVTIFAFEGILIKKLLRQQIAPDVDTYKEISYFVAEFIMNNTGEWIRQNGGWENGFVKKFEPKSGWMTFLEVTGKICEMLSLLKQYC
Description: Various warhead SAHBs were tested in conjugation assays with Bfl-1. For this series of peptides the warhead at position J was selected from those depicted below.
10 μM Bfl-1 was reduced with DTT, then incubated with 3:1 molar ratio of warhead SAHB. Samples were then combined with loading dye, run on a 12% Bis-Tris SDS-PAGE, and stained with Coomassie. The same setup was used for all antiapoptotic proteins tested.

[8] = molecular target: T2, HA-BFL-1ΔC C4S/C19S (Homo sapiens, UniProt Q16548, C19S/C4S); assay: Competition with tBID in 293T lysates (immunoprecipitation); format: binding; conditions: 5 μM biotinylated peptide, 0.25 μM tBID, 6 h RT
T2 construct: BFL-1ΔC (aa 1-153); expressed in transfected cells; host or cells: 293T cells, pCMV plasmid, transient
T2 sequence (Q16548 1-153 C4S/C19S): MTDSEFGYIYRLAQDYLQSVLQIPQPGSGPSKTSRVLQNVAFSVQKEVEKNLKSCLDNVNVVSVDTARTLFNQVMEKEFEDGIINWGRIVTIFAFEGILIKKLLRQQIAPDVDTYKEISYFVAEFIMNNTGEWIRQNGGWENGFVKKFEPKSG
Description: Protein concentration of the soluble fraction was measured using a BCA kit according to manufacturer's instructions (Thermo Scientific). […] After 24 h, cells were trypsinized, washed with PBS, lysed in 1% CHAPS buffer, and the supernatant collected for protein concentration determination by BCA kit. […] Cells were harvested and lysed as above, and incubated overnight with anti-HA agarose beads (Pierce). The beads were washed 3 times with lysis buffer, eluted by boiling in LDS buffer, and subjected to western analysis with HA and biotin antibodies. […] Biotin capture was accomplished by incubating the mixture with high-capacity SA agarose (Thermo Scientific) for 2 h at 4° C., followed by centrifugation and washing the pelleted beads with 3×1 mL lysis buffer.

[9] = molecular target: T3, FLAG-MCL-1 (Homo sapiens, UniProt Q07820); assay: as above; format: binding; conditions: 5 μM biotinylated peptide, 0.25 μM tBID, 6 h RT
T3 construct: expressed in transfected cells; host or cells: 293T cells, p3×FLAG-CMV-10 vector, transient
T3 sequence (Q07820 whole entry): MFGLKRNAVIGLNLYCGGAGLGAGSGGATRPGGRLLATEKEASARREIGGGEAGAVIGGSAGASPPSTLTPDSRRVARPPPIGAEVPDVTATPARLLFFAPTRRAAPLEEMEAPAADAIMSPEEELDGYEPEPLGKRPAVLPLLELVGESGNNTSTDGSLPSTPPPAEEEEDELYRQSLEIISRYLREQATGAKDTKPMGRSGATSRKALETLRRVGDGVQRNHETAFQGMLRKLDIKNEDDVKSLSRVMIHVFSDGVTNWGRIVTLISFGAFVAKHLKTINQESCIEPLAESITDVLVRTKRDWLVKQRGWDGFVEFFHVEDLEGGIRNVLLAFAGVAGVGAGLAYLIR
Description: 293T cells were maintained in DMEM containing 10% FBS and penicillin/streptomycin, and transfections performed with 2 μg pCMV plasmid containing HA-BFL-1ΔC C4S/C19S using X-tremeGENE 9 (Roche). For lysate experiments, cells were trypsinized 24 hours post-transfection, washed with PBS, and lysed by incubation with 1% CHAPS lysis buffer (150 mM NaCl, 50 mM Tris pH 7.4, 100 mM DTT). Protein concentration of the soluble fraction was measured using a BCA kit according to manufacturer's instructions (Thermo Scientific). […] Samples were then boiled in LDS buffer and subjected to western analysis using 1:1000 dilutions of HA (Sigma-Aldrich, #12CA5) and biotin (Abcam, #53494) antibodies. To evaluate the capacity of biotinylated SAHBs to compete with tBID for interactions with BFL-1 and MCL-1, 293T cells were transfected with either HA-BFL-1ΔC C4S/C19S or FLAG-MCL-1 in the p3×FLAG-CMV-10 vector (Sigma) as above. After 24 h, cells were trypsinized, washed with PBS, lysed in 1% CHAPS buffer, and the supernatant collected for protein concentration determination by BCA kit. […] The mixtures were then subjected to HA or FLAG (Sigma-Aldrich, F7425) immunoprecipitation, followed by western analysis using 1:1000 dilutions of HA, FLAG, biotin, and BID (Santa Cruz sc-11423) antibodies. […] Cells were harvested and lysed as above, and incubated overnight with anti-HA agarose beads (Pierce). […]

[10] = molecular target: T4, MCL-1 (Homo sapiens, UniProt Q07820); assay: SA pull-down from A375P lysates, MCL-1 western; format: binding; conditions: biotinylated SAHBs
T4 construct: we incubated A375P lysates with the corresponding biotinylated BIM SAHBs; endogenous in cells; host or cells: A375P melanoma cell lysate

[11] = molecular target: T1, Bfl-1; assay: Competitive binding assay after pre-forming the Bfl-1:NOXA disulfide bond; conditions: Bfl-1:NOXA disulfide bond pre-formed
Description: The functional impact of the Bfl-1:NOXA disulfide bond formation was evaluated using competitive binding assays and liposomal release assays.

C=CC(=O)N1CCC[C@@H](C(=O)N[C@H](C(=O)N[C@@H](C)C(=O)N[C@@H](CCC(N)=O)C(=O)N[C@@H](CCC(=O)O)C(=O)N[C@@H](CC(C)C)C(=O)N[C@@H](CCCNC(=N)N)C(=O)N[C@@]2(C)CCCC=CCCC[C@@](C)(C(=O)N[C@@H](Cc3ccccc3)C(=O)N[C@@H](CC(N)=O)C(=O)N[C@@H](C)C(=O)N[C@@H](Cc3ccc(O)cc3)C(=O)N[C@@H](Cc3ccc(O)cc3)C(=O)N[C@@H](C)C(=O)N[C@@H](CCCNC(=N)N)C(=O)N[C@@H](CCCNC(=N)N)C(N)=O)NC(=O)[C@H](CC(=O)O)NC(=O)CNC(=O)[C@H]([C@@H](C)CC)NC2=O)[C@@H](C)CC)C1 [BIM SAHBA-3]
enhancement in cytotoxicity and caspase 3/7 activation [1]: no evidence of this phenomenon
enhancement in cytotoxicity and caspase 3/7 activation [2]: no evidence of this phenomenon
enhancement in cytotoxicity and caspase 3/7 activation [3]: comparative enhancement in cytotoxicity and caspase 3/7 activation
enhancement in cytotoxicity and caspase 3/7 activation [4]: comparative enhancement in cytotoxicity and caspase 3/7 activation
enhancement in cytotoxicity and caspase 3/7 activation [5]: no evidence of this phenomenon
cytotoxicity compared to BIM SAHBA1 [6]: significant enhancement in cytotoxicity over time

O=C(O)[C@H]1CCCCN1 [D-homoproline]
covalent binding efficiency [7]: less efficient

O=C(O)[C@@H]1CCCCN1 [L-homoproline]
covalent binding efficiency [7]: less efficient

CN(C)C/C=C/C(=O)O [trans-4-dimethylaminocrotonic acid]
covalent binding efficiency [7]: less efficient

BIM SAHBA: BIM SAHBA (aa 147-166), corresponding construct lacking the acrylamide-based warhead
competition with tBID for HA-BFL-1 binding [8]: incapable of competing with tBID for HA-BFL-1 binding
competition with tBID for FLAG-MCL-1 [9]: equally effective at competing with tBID
binding to MCL-1 [10]: equivalent binding to anti-apoptotic MCL-1

NOXA SAHBA C25S: NOXA SAHBA with C25S mutation; SEQ ID NO: 128 (AELEVESATQLR[S5]FGD[S5]LNFRQKLL; staple 13-17; not fully specified)
availability of the Bfl-1 binding pocket to another FITC BH3 domain [11]: abrogated these inhibitory effects

Source: patent publication US12570698B2, “Stabilized peptides for covalent binding to target protein” (Dana-Farber Cancer Institute, Inc., priority 2015, dated 2026)
